# Key:
# Format in all cases: in vivo, human
# [1] = Clinical improvement of a patient with cerebrospinal folate deficiency (case report, Example 2); conditions: patient Example 2; after 5-methyltetrahydrofolate treatment (folinic acid 5 mg twice per day)
# Procedure: After Example 2's diagnosis, Example 2 was placed on 5-methyltetrahydrofolate in the form of folinic acid (5 mg twice per day). Within approximately four months, Example 2's cerebrospinal folate levels rose from 32 L (preferred range 40-128) to approximately 88 (above the midpoint of the range). […] Thus, reduced folates are critical.
# [2] = Cerebrospinal folate level in a patient with cerebrospinal folate deficiency (case report, Example 2); conditions: patient Example 2; folinic acid 5 mg twice per day; within approximately four months; rose from 32 L (preferred range 40-128)
# Procedure: Example 1 was tested for cerebrospinal folate deficiency approximately four months after Example 2's testing. […] Studies have shown that the earlier the anemias associated with cerebrospinal folate deficiency are addressed, the better the adversely impacted individual can overcome more long-term effects of the associated folate deficiency.
# After Example 2's diagnosis, Example 2 was placed on 5-methyltetrahydrofolate in the form of folinic acid (5 mg twice per day).
# [3] = Hematological response (reticulocytes) in a hypothyroid neonate after vitamin B12 supplementation (case report, Example 1); conditions: patient Example 1 (neonate); additional nutritional supplement containing 2 mcg of vitamin B12
# From the text: In another example: a patient (later referred to as Example 1, and also a twin of Example 2) suffered from clinical signs of cerebrospinal folate deficiency at birth. Example 1 received infant milk formula that contained vitamin B12. […] It is noted that the multivitamin nutritional supplement was Poly-Vi-Sol. Example 2 received a version of Poly-Vi-Sol that was fortified with iron, but that contained no vitamin B12. It is further noted that neither the version of Poly-Vi-Sol (without the iron fortification) nor the Poly-Vi-Sol (with iron fortification) contained any folate. Thus, the disclosed subject matter addresses the need for Poly-Vi-Sol, and other vitamin supplements that are given to neonates, infants and toddlers, to contain the methods and compositions described herein.
# Both Example 1 and Example 2 were treated for iron deficiencies with iron supplements. Example 1 and Example 2 received different nutritional supplementation with respect to vitamin B 12. Although Example 2 did receive the same infant milk formula that Example 1 received, which infant milk formula contained vitamin B 12, Example 2 received less of the infant milk formula than Example 1, and Example 2 received in lieu of the infant milk formula more of the breast milk from the hypothyroid […]. […]
Compound,"physical, behavioral and social skills [1]",cerebrospinal folate levels [2],hematological response: reticulocytes [3]
"Nc1nc2c(c(=O)[nH]1)N(C=O)C(CNc1ccc(C(=O)N[C@@H](CCC(=O)O)C(=O)O)cc1)CN2 (stereo partly drawn) [folinic acid, 6(R,S)-5-formyltetrahydrofolate]","showed improvement in physical, behavioral and social skills",approximately 88,–
vitamin B 12,–,–,"increase in reticulocytes, moving from below normal to normal"

# Reference: patent publication US20210251999A1, “Treatment of Conditions Associated With Decreased Folate in Cerebral Spinal Fluid” (priority 2011, published 2021)
